Literature values in patent US20230285483A1, “TINCTURE CONTAINING CANNABINOIDS, METHOD OF USING, AND METHOD OF MAKING THE SAME” (priority 2022, published 2023).

Columns and labels:
[1] = target: spike proteins found on the virus (Severe acute respiratory syndrome coronavirus 2, UniProt P0DTC2); details: study by researchers at Oregon State University
coronavirus = details: study by researchers at Oregon State University

Row | Structure (SMILES) | binding to spike proteins found on the virus [1] | blocking of a step the pathogen uses to infect people (coronavirus)
1 | C=C(C)[C@@H]1CCC(C)=C[C@H]1c1c(O)cc(CCCCC)c(C(=O)O)c1O [CBDa, cannabidiolic acid] | bind to spike proteins | blocked a step the pathogen uses to infect people
2 | CCCCCc1cc(O)c(C/C=C(\C)CCC=C(C)C)c(O)c1C(=O)O [CBGa, cannabigerolic acid] | bind to spike proteins | blocked a step the pathogen uses to infect people
